Assay results: PubChem BioAssay AID1963968 (Molecular Pharmacology Branch, DTP, NCI, 2024)

Tested on: 945468-187-T-J3-PDC spheroids with HUVEC/MSC, viability
Assay: Anticancer human tumor 945468-187-T-J3-PDC patient-derived rectal carcinoma cell line growth inhibition [PI3K]
Conditions: for IC50: curve of first compound; for viability, T/C: stronger effect = lower value
In short: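 We assembled tumor spheroids that included a stromal compartment of HUVEC and MSCs, then exposed them to targeted agents alone and together with PI3K pathway inhibitors. Concentration series descended by half-log from clinically achievable Cmax levels. Viability served as the endpoint.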

[1] = second compound 0.0316 µM, first compound 0.0316 µM
[2] = second compound 0.0316 µM, first compound 0.1 µM
[3] = second compound 0.0316 µM, first compound 0.316 µM
[4] = second compound 0.0316 µM, first compound 1 µM
[5] = second compound 0.0316 µM, first compound 3.16 µM
[6] = second compound 0.0316 µM, first compound 10 µM
[7] = second compound 0.1 µM, first compound 0.0316 µM
[8] = second compound 0.1 µM, first compound 0.1 µM
[9] = second compound 0.1 µM, first compound 0.316 µM
[10] = second compound 0.1 µM, first compound 1 µM
[11] = second compound 0.1 µM, first compound 3.16 µM
[12] = second compound 0.1 µM, first compound 10 µM
[13] = second compound 0.316 µM, first compound 0.0316 µM
[14] = second compound 0.316 µM, first compound 0.1 µM
[15] = second compound 0.316 µM, first compound 0.316 µM
[16] = second compound 0.316 µM, first compound 1 µM
[17] = second compound 0.316 µM, first compound 3.16 µM
[18] = second compound 0.316 µM, first compound 10 µM
[19] = second compound 1 µM, first compound 0.0316 µM
[20] = second compound 1 µM, first compound 0.1 µM
[21] = second compound 1 µM, first compound 0.316 µM
[22] = second compound 1 µM, first compound 1 µM
[23] = second compound 1 µM, first compound 3.16 µM
[24] = second compound 1 µM, first compound 10 µM
[25] = second compound 3.16 µM, first compound 0.0316 µM
[26] = second compound 3.16 µM, first compound 0.1 µM
[27] = second compound 3.16 µM, first compound 0.316 µM
[28] = second compound 3.16 µM, first compound 1 µM
[29] = second compound 3.16 µM, first compound 3.16 µM
[30] = second compound 3.16 µM, first compound 10 µM
[31] = second compound 10 µM, first compound 0.0316 µM
[32] = second compound 10 µM, first compound 0.1 µM
[33] = second compound 10 µM, first compound 0.316 µM
[34] = second compound 10 µM, first compound 1 µM
[35] = second compound 10 µM, first compound 3.16 µM
[36] = second compound 10 µM, first compound 10 µM
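Also: spheroids exposed to agents for 7 days before viability read.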
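For viability, T/C in this document: 100% = DMSO vehicle control viability.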

Compound: Cn1ncc(Cl)c1-c1cc(C(=O)NC(CN)Cc2cccc(F)c2)sc1Cl (stereo not drawn) + Cc1nc(NC(=O)N2CCCC2C(N)=O)sc1-c1ccnc(C(C)(C)C(F)(F)F)c1
- IC50 (second compound 0.0316 µM): 4060 nM
- IC50 (second compound 0.1 µM): 2930 nM
- IC50 (second compound 0.316 µM): 1950 nM
- IC50 (second compound 1 µM): 1430 nM
- IC50 (second compound 3.16 µM): 605 nM
- IC50 (second compound 10 µM): 131 nM
- viability, T/C [1]: 86.1%
- viability, T/C [2]: 106%
- viability, T/C [3]: 96.3%
- viability, T/C [4]: 83%
- viability, T/C [5]: 54.6%
- viability, T/C [6]: 35.1%
- viability, T/C [7]: 110%
- viability, T/C [8]: 97.2%
- viability, T/C [9]: 93.5%
- viability, T/C [10]: 60.1%
- viability, T/C [11]: 53.7%
- viability, T/C [12]: 34.1%
- viability, T/C [13]: 114%
- viability, T/C [14]: 119%
- viability, T/C [15]: 94%
- viability, T/C [16]: 61.8%
- viability, T/C [17]: 44.6%
- viability, T/C [18]: 29.7%
- viability, T/C [19]: 109%
- viability, T/C [20]: 108%
- viability, T/C [21]: 82.4%
- viability, T/C [22]: 54%
- viability, T/C [23]: 39.8%
- viability, T/C [24]: 21.1%
- viability, T/C [25]: 107%
- viability, T/C [26]: 84%
- viability, T/C [27]: 53.2%
- viability, T/C [28]: 45%
- viability, T/C [29]: 32.7%
- viability, T/C [30]: 16.4%
- viability, T/C [31]: 60.6%
- viability, T/C [32]: 52.2%
- viability, T/C [33]: 40%
- viability, T/C [34]: 31.9%
- viability, T/C [35]: 28.4%
- viability, T/C [36]: 4.34%

Compound: CC(Cn1ccc(-c2ccc(C#N)c(Cl)c2)n1)NC(=O)c1cc(C(C)O)[nH]n1 (stereo not drawn) + CC(Nc1ncnc2nc[nH]c12)c1cc2cccc(Cl)c2c(=O)n1-c1ccccc1
- IC50 (second compound 0.0316 µM): > 10000 nM
- IC50 (second compound 0.1 µM): > 10000 nM
- IC50 (second compound 0.316 µM): > 10000 nM
- IC50 (second compound 1 µM): > 10000 nM
- IC50 (second compound 3.16 µM): > 10000 nM
- IC50 (second compound 10 µM): > 10000 nM
- viability, T/C [1]: 93.4%
- viability, T/C [2]: 104%
- viability, T/C [3]: 126%
- viability, T/C [4]: 91.3%
- viability, T/C [5]: 125%
- viability, T/C [6]: 94%
- viability, T/C [7]: 91.1%
- viability, T/C [8]: 95.5%
- viability, T/C [9]: 89.5%
- viability, T/C [10]: 91.4%
- viability, T/C [11]: 114%
- viability, T/C [12]: 105%
- viability, T/C [13]: 95.5%
- viability, T/C [14]: 100%
- viability, T/C [15]: 118%
- viability, T/C [16]: 97.9%
- viability, T/C [17]: 101%
- viability, T/C [18]: 106%
- viability, T/C [19]: 87.8%
- viability, T/C [20]: 108%
- viability, T/C [21]: 98.1%
- viability, T/C [22]: 93%
- viability, T/C [23]: 104%
- viability, T/C [24]: 94.8%
- viability, T/C [25]: 94.8%
- viability, T/C [26]: 102%
- viability, T/C [27]: 96.5%
- viability, T/C [28]: 112%
- viability, T/C [29]: 113%
- viability, T/C [30]: 110%
- viability, T/C [31]: 122%
- viability, T/C [32]: 99.1%
- viability, T/C [33]: 98.2%
- viability, T/C [34]: 96.7%
- viability, T/C [35]: 104%
- viability, T/C [36]: 91.2%

Compound: Cn1ncnc1[C@H]1c2n[nH]c(=O)c3cc(F)cc(c23)N[C@@H]1c1ccc(F)cc1 + COc1c(OCCCN2CCOCC2)ccc2c3n(c(=NC(=O)c4cnc(N)nc4)nc12)CCN3
- IC50 (second compound 0.00316 µM): > 100 nM
- IC50 (second compound 0.01 µM): > 100 nM
- IC50 (second compound 0.0316 µM): > 100 nM
- IC50 (second compound 0.1 µM): < 0.316 nM
- IC50 (second compound 0.316 µM): < 0.316 nM
- IC50 (second compound 1 µM): < 0.316 nM
- viability, T/C (second compound 0.00316 µM, first compound 0.000316 µM): 101%
- viability, T/C (second compound 0.00316 µM, first compound 0.001 µM): 90.1%
- viability, T/C (second compound 0.00316 µM, first compound 0.00316 µM): 88.8%
- viability, T/C (second compound 0.00316 µM, first compound 0.01 µM): 92.6%
- viability, T/C (second compound 0.00316 µM, first compound 0.0316 µM): 117%
- viability, T/C (second compound 0.00316 µM, first compound 0.1 µM): 92.8%
- viability, T/C (second compound 0.01 µM, first compound 0.000316 µM): 99.3%
- viability, T/C (second compound 0.01 µM, first compound 0.001 µM): 91.4%
- viability, T/C (second compound 0.01 µM, first compound 0.00316 µM): 97.7%
- viability, T/C (second compound 0.01 µM, first compound 0.01 µM): 92.5%
- viability, T/C (second compound 0.01 µM, first compound 0.0316 µM): 101%
- viability, T/C (second compound 0.01 µM, first compound 0.1 µM): 95.4%
- viability, T/C (second compound 0.0316 µM, first compound 0.000316 µM): 98.8%
- viability, T/C (second compound 0.0316 µM, first compound 0.001 µM): 93.9%
- viability, T/C (second compound 0.0316 µM, first compound 0.00316 µM): 84.2%
- viability, T/C (second compound 0.0316 µM, first compound 0.01 µM): 86%
- viability, T/C [1]: 89.2%
- viability, T/C [2]: 97.6%
- viability, T/C (second compound 0.1 µM, first compound 0.000316 µM): 46.5%
- viability, T/C (second compound 0.1 µM, first compound 0.001 µM): 55.3%
- viability, T/C (second compound 0.1 µM, first compound 0.00316 µM): 40.8%
- viability, T/C (second compound 0.1 µM, first compound 0.01 µM): 49.5%
- viability, T/C [7]: 42%
- viability, T/C [8]: 38.8%
- viability, T/C (second compound 0.316 µM, first compound 0.000316 µM): 20.3%
- viability, T/C (second compound 0.316 µM, first compound 0.001 µM): 21.3%
- viability, T/C (second compound 0.316 µM, first compound 0.00316 µM): 19.4%
- viability, T/C (second compound 0.316 µM, first compound 0.01 µM): 22.2%
- viability, T/C [13]: 21.2%
- viability, T/C [14]: 18.5%
- viability, T/C (second compound 1 µM, first compound 0.000316 µM): 14.1%
- viability, T/C (second compound 1 µM, first compound 0.001 µM): 15.5%
- viability, T/C (second compound 1 µM, first compound 0.00316 µM): 15.3%
- viability, T/C (second compound 1 µM, first compound 0.01 µM): 15.7%
- viability, T/C [19]: 14.8%
- viability, T/C [20]: 12.6%

Compound: C=CC(=O)N1CCN(c2nc(=O)n(-c3c(C)ccnc3C(C)C)c3nc(-c4c(O)cccc4F)c(F)cc23)C(C)C1 (stereo not drawn) + CC(Nc1ncnc2nc[nH]c12)c1cc2cccc(Cl)c2c(=O)n1-c1ccccc1
- IC50 (second compound 0.0316 µM): > 10000 nM
- IC50 (second compound 0.1 µM): > 10000 nM
- IC50 (second compound 0.316 µM): > 10000 nM
- IC50 (second compound 1 µM): > 10000 nM
- IC50 (second compound 3.16 µM): > 10000 nM
- IC50 (second compound 10 µM): > 10000 nM
- viability, T/C [1]: 91.9%
- viability, T/C [2]: 92.9%
- viability, T/C [3]: 104%
- viability, T/C [4]: 96.4%
- viability, T/C [5]: 96.6%
- viability, T/C [6]: 98.3%
- viability, T/C [7]: 94.7%
- viability, T/C [8]: 103%
- viability, T/C [9]: 100%
- viability, T/C [10]: 92.6%
- viability, T/C [11]: 107%
- viability, T/C [12]: 95.9%
- viability, T/C [13]: 94.8%
- viability, T/C [14]: 92.9%
- viability, T/C [15]: 88.5%
- viability, T/C [16]: 91.6%
- viability, T/C [17]: 106%
- viability, T/C [18]: 99.3%
- viability, T/C [19]: 99.3%
- viability, T/C [20]: 105%
- viability, T/C [21]: 94.8%
- viability, T/C [22]: 94.1%
- viability, T/C [23]: 107%
- viability, T/C [24]: 95.8%
- viability, T/C [25]: 90.5%
- viability, T/C [26]: 99.6%
- viability, T/C [27]: 101%
- viability, T/C [28]: 110%
- viability, T/C [29]: 97.2%
- viability, T/C [30]: 93.4%
- viability, T/C [31]: 104%
- viability, T/C [32]: 91.1%
- viability, T/C [33]: 97.9%
- viability, T/C [34]: 97.6%
- viability, T/C [35]: 116%
- viability, T/C [36]: 93.9%
